Experimental data published in patent US20040002052A1, “Systems and methods for rapid evaluation and design of molecules for predicted biological activity” (priority 2001, published 2004).
“Also recorded” adds a separate entry of the source.

Columns and labels:
estrogenic activity [1] = assay: uterotrophic assays (estrogenic bioactivity); format: in vivo; details: compared with estradiol
estrogenic activity [2] = details: Medicinal Chemistry Research 10:440-455, 2001; cited from earlier work

SMILES: CO[C@H]1C[C@]2(C)[C@@H](O)CC[C@H]2[C@H]2[C@H]1c1ccc(O)cc1C[C@H]2C [PDC-7, 11β-Methoxy-7α-Methylestradiol]
- biological potency in uterotrophic assays / estrogenic activity (estrogenic activity [1]): improved biological potency over estradiol; also recorded: potent estrogenic activity
- estrogenic bioactivity compared with estradiol (estrogenic activity [2]): greater estrogenic bioactivity than estradiol
